Assay [1] deals with normal human dermal fibroblast cultures. As to the kind of experiment: effect of resveratrol on the synthesis of collagen: incorporation of tritiated proline into newly synthesized proteins of normal human dermal fibroblast cultures. In kind it is cell-based. The protocol: (§1) Investigating the effect of resveratrol on the synthesis of collagen: This study was carried out by measuring the incorporation of radioactive proline into the proteins newly synthesized by normal human dermal fibroblast cultures. These newly synthesized proteins were predominantly collagen fibers. The fibroblast cultures were conducted according to conventional cell culture techniques, namely, in MEM/M199 medium marketed by Gibco, in the presence of sodium bicarbonate (1.87 mg/ml), of L-glutamine (2 mM), of penicillin (50 IU/ml) and of 10% fetal calf serum (Gibco). The test was carried out on 80% confluent cell cultures in a 24-well plate. […] The labelling with tritiated proline (L-[2,3-^3 H]proline marketed by Amersham, 33 mCi/ml) was conducted for 24 hours. The amount of tritiated proline incorporated was measured at the end of the test by acid precipitation of the proteins on filters and liquid scintillation counting. The results were evaluated relative to a control consisting of cells which were not treated with resveratrol. A positive control (vitamin C at 20 mg/ml) known to stimulate the synthesis of collagen was included in the test as a reference.

Assay [2] has the same test system. Described as above. In kind it is cell-based. Conditions: positive control; not treated 22,528 cpm. Also noted: dose or concentration left out as unconfirmed. The method, then: as §1
The test system is the same in assay [3]. The description is as above. Further details: unit of the concentration uncertain. Conditions: 48 hours contact, labelling 24 hours, not treated 22,528 cpm. The format is cell-based. The protocol: as §1
For assay [4], the system named is interstitial collagenase (A2058 cells). As to the kind of experiment: effect of resveratrol on the production of interstitial collagenase in a culture of A2058 cells (Elisa). The format is cell-based, human. The method, then: Effect of resveratrol on the expression of the collagenases:
The effect of resveratrol on the production of interstitial collagenase was evaluated in a model of culture of A2058 cells (derived from human malanomas: Templeton N. S. et al., Cancer Res., SO.- 54315431(1990)).
The cells were incubated in a phenol red-free MEM medium containing amino acids at the concentration of 2 mM, sodium pyruvate at the concentration of 1 mM and 10% charcoal-treated calf serum. They were then cultured at the density of 20,000 cells per well in the 24 wells of a multiwell plate.
Twenty-four hours after cultering, the cells were contacted with resveratrol. The production of interstitial collagenase was evaluated 96 hours later in the culture medium. This was carried out with the aid of an Elisa kit (Biotrack human MMPL; Amersham).
The resveratrol was tested at the concentrations 2×10^-7 M and 2×10^-6 M.
The results, expressed as percentages, represent the reduction in the production of interstitial collagenase compared with the control, namely, compared with a culture carried out under the same conditions in the absence of resveratrol.

Assay [5] has as its system normal human dermal fibroblast cultures. The experiment in a line: effect of resveratrol on the proliferation of the fibroblasts of the dermis: incorporation of radioactive thymidine into normal human dermal fibroblast cultures. The note with it: for tritiated thymidine incorporated (cpm): 48 hours contact, labelling 24 hours, not treated 13,649 cpm. In kind it is cell-based. The protocol: Investigating the effect of resveratrol on the proliferation of the fibroblasts of the dermis:
This study was carried out by measuring the incorporation of radioactive thymidine into normal human dermal fibroblast cultures.
The fibroblast cultures were conducted according to conventional cell culture techniques, namely in MEM/M199 medium marketed by Gibco, in the presence of sodium bicarbonate (1.87 mg/ml), of L-glutamine (2 mM), of penicillin (50 IU/ml) and of 10% fetal calf serum (Gibco).
The test was carried out on 80% confluent cell cultures in a 24-well plate. Resveratrol, at the concentration of 1.25 mM and 5 mM, was placed in contact with the cells for 48 hours. The labelling with tritiated thymidine ([methyl-^3 H]thymidine marketed by Amersham, 82 Ci/mmol) was conducted for 24 hours.
The amount of tritiated thymidine incorporated was measured at the end of the test by acid precipitation of the proteins on filters and liquid scintillation counting.
The results were evaluated relative to a control consisting of cells which were not treated with resveratrol.
A positive control (fetal calf serum at 20%) known to stimulate the […] was included in the test as a reference.

For the molecule `O=C1O[C@H]([C@@H](O)CO)C(O)=C1O` [Vitamin C, reference compound], the activity at 20000 µg/mL in assay [1] (Homo sapiens, Fibroblast, 48 h, positive control, 20 mg/ml, not treated = 100, p <0.01, read-out: tritiated proline incorporated, % relative to not treated control) was 162%. Besides, the “tritiated proline incorporated (cpm)” value in assay [2] was 36,431 cpm.
For orientation: inhibition means the percentage by which the read-out fell short of the control. With `Oc1ccc(C=Cc2cc(O)cc(O)c2)cc1` [Resveratrol, 3,4',5-trihydroxystilbene], the “tritiated proline incorporated (cpm)” value in assay [3] (1.25 (unit uncertain)) is 27,164 cpm; in assay [3] (5.00 (unit uncertain)), 25,769 cpm. Besides, the inhibition at 0.2 µM in assay [4] (Homo sapiens, 0.2 μM, 96 hours, A2058 cells, read-out: % inhibition (reduction in the production of interstitial collagenase compared with the control)) is 14%. Moreover, the inhibition at 2 µM in assay [4] (Homo sapiens, 2 μM, 96 hours, A2058 cells, read-out: % inhibition (reduction in the production of interstitial collagenase compared with the control)) worked out at 57%. In assay [4] (conclusion from Table III), the “production of interstitial collagenase by A2058 cells (in words)” value is “reduced the production of interstitial collegenase by the A 2058 cells and this in a dose-dependent manner”. For the same molecule, the activity at 1250 µM stood at 121% in assay [1] (Homo sapiens, Fibroblast, 1.25 mM, 48 hours, not treated = 100, p <0.01, read-out: tritiated proline incorporated, % relative to not treated control) and 110% in assay [5] (Homo sapiens, Fibroblast, 1.25 mM, 48 hours, not treated = 100, p <0.05, read-out: tritiated thymidine incorporated, % relative to not treated control). Moreover, the activity at 5000 µM was determined as 114% in assay [1] (Homo sapiens, Fibroblast, 5.00 mM, 48 hours, not treated = 100, p <0.05, read-out: tritiated proline incorporated, % relative to not treated control) and 141% in assay [5] (Homo sapiens, Fibroblast, 5.00 mM, 48 hours, not treated = 100, p <0.01, read-out: tritiated thymidine incorporated, % relative to not treated control). Also, in assay [1] (conclusion from Table I), the “incorporation of proline into collagen (in words)” value is “substantially stimulated the incorporation of proline into collagen”. In addition, the entries for the “tritiated thymidine incorporated (cpm)” value in assay [5] (1.25 mM) and in assay [5] (5.00 mM) were 15,055 cpm and 19,229 cpm, respectively.

For the origin of these results see patent publication US6147121A, “Skin toning by stimulating collagen synthesis/proliferation of dermal fibroblasts” (Societe L'Oreal S.A., priority 1998, dated 2000).
